According to ChEMBL document CHEMBL1201862, “PubChem BioAssay data set” (2004):
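Five concentrations, 48 hours, 96-well plates. GI50 marks 50% less growth.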 Active and inactive are the calls of the source. No stated cut-off is given here; in the data, active = GI50 up to about 1.1 µM and inactive = higher.

Assays:
Test in all cases: NCI anticancer screen, dose series, 48 h
SK-MEL-2 = tested on: SK-MEL-2
OVCAR-5 = tested on: OVCAR-5
SF-295 = tested on: SF-295
786-0 = tested on: 786-0
HOP-62 = tested on: HOP-62
SK-OV-3 = tested on: SK-OV-3
T47D = tested on: T47D
MCF7 = tested on: MCF7
MDA-MB-231 = tested on: MDA-MB-231
OVCAR-8 = tested on: OVCAR-8
HCT-116 = tested on: HCT-116
RXF 393 = tested on: RXF 393
COLO 205 = tested on: COLO 205
KM12 = tested on: KM12
TK-10 = tested on: TK-10
UO-31 = tested on: UO-31
OVCAR-3 = tested on: OVCAR-3
NCI/ADR-RES = tested on: NCI/ADR-RES
HOP-92 = tested on: HOP-92
HL-60 = tested on: HL-60

Row | Structure (SMILES) | GI50 (SK-MEL-2) | GI50 (OVCAR-5) | GI50 (SF-295) | GI50 (786-0) | GI50 (HOP-62) | GI50 (SK-OV-3) | GI50 (T47D) | GI50 (MCF7) | GI50 (MDA-MB-231) | GI50 (OVCAR-8) | GI50 (HCT-116) | GI50 (RXF 393) | GI50 (COLO 205) | GI50 (KM12) | GI50 (TK-10) | GI50 (UO-31) | GI50 (OVCAR-3) | GI50 (NCI/ADR-RES) | GI50 (HOP-92) | GI50 (HL-60)
1 | O=C(CSc1nc2nncc-2c(O)[nH]1)c1ccc(Cl)cc1 | 75.3 µM (inactive) | > 100 µM (inactive) | > 100 µM (inactive) | > 100 µM (inactive) | > 100 µM (inactive) | > 100 µM (inactive) | > 100 µM (inactive) | > 100 µM (inactive) | > 100 µM (inactive) | > 100 µM (inactive) | > 100 µM (inactive) | > 100 µM (inactive) | > 100 µM (inactive) | > 100 µM (inactive) | > 100 µM (inactive) | > 100 µM (inactive) | > 100 µM (inactive) | > 100 µM (inactive) | – | –
2 | O=C(NC1CCCCC1)c1nn[nH]c1Cl | > 100 µM (inactive) | > 100 µM (inactive) | > 100 µM (inactive) | > 100 µM (inactive) | > 100 µM (inactive) | > 100 µM (inactive) | > 100 µM (inactive) | > 100 µM (inactive) | > 100 µM (inactive) | > 100 µM (inactive) | > 100 µM (inactive) | > 100 µM (inactive) | > 100 µM (inactive) | > 100 µM (inactive) | > 100 µM (inactive) | > 100 µM (inactive) | > 100 µM (inactive) | > 100 µM (inactive) | > 100 µM (inactive) | –
3 | c1ccc2c(c1)SCCCSCCCS2 | – | > 100 µM (inactive) | > 100 µM (inactive) | > 100 µM (inactive) | > 100 µM (inactive) | > 100 µM (inactive) | > 100 µM (inactive) | > 100 µM (inactive) | 65.3 µM (inactive) | > 100 µM (inactive) | 63.4 µM (inactive) | – | 74.5 µM (inactive) | > 100 µM (inactive) | > 100 µM (inactive) | – | > 100 µM (inactive) | > 100 µM (inactive) | 60.1 µM (inactive) | 28.1 µM (inactive)
4 | CC1CCC2C(C)C(OC(=O)CCC(=O)O)OC3OC4(C)CCC1C32OO4 (centres undefined) | 3.86 µM (inactive) | 1.31 µM (inactive) | 15.8 µM (inactive) | 15.4 µM (inactive) | 16.6 µM (inactive) | 53.6 µM (inactive) | 0.828 µM (active) | 4.5 µM (inactive) | > 100 µM (inactive) | 3.47 µM (inactive) | 0.759 µM (active) | – | 1.42 µM (inactive) | 1.33 µM (inactive) | 2.99 µM (inactive) | 1.33 µM (inactive) | 5.52 µM (inactive) | 4.62 µM (inactive) | 11.6 µM (inactive) | 0.427 µM (active)
5 | COC(=O)C1(Cc2ccccc2)Cc2ccccc2C1=O (centres undefined) | 19.1 µM (inactive) | > 100 µM (inactive) | 66.8 µM (inactive) | 60.5 µM (inactive) | 72.1 µM (inactive) | > 100 µM (inactive) | 43.1 µM (inactive) | 42.1 µM (inactive) | 83.6 µM (inactive) | 50.8 µM (inactive) | 36.1 µM (inactive) | – | 49.9 µM (inactive) | 27.7 µM (inactive) | 57 µM (inactive) | 23.3 µM (inactive) | 39.3 µM (inactive) | 25.7 µM (inactive) | 59.2 µM (inactive) | 19.7 µM (inactive)
6 | O=C(/C=C/c1ccccc1)CCC1C(=O)NC(=O)NC1=O | > 100 µM (inactive) | > 100 µM (inactive) | > 100 µM (inactive) | > 100 µM (inactive) | – | > 100 µM (inactive) | > 100 µM (inactive) | > 100 µM (inactive) | > 100 µM (inactive) | > 100 µM (inactive) | > 100 µM (inactive) | – | > 100 µM (inactive) | > 100 µM (inactive) | > 100 µM (inactive) | > 100 µM (inactive) | > 100 µM (inactive) | > 100 µM (inactive) | > 100 µM (inactive) | > 100 µM (inactive)
7 | CCOC(=O)C1C(c2ccc(OC)cc2)c2c(n[nH]c2O)CC1(O)OCC (centres undefined) | > 100 µM (inactive) | > 100 µM (inactive) | 44.8 µM (inactive) | > 100 µM (inactive) | > 100 µM (inactive) | – | > 100 µM (inactive) | > 100 µM (inactive) | > 100 µM (inactive) | > 100 µM (inactive) | > 100 µM (inactive) | – | > 100 µM (inactive) | > 100 µM (inactive) | > 100 µM (inactive) | > 100 µM (inactive) | > 100 µM (inactive) | > 100 µM (inactive) | > 100 µM (inactive) | > 100 µM (inactive)
8 | Cc1ccc2c(c1)C(=S)N1CSCC1c1nncn1-2 (centres undefined) | > 100 µM (inactive) | > 100 µM (inactive) | > 100 µM (inactive) | > 100 µM (inactive) | > 100 µM (inactive) | > 100 µM (inactive) | > 100 µM (inactive) | > 100 µM (inactive) | > 100 µM (inactive) | > 100 µM (inactive) | > 100 µM (inactive) | > 100 µM (inactive) | > 100 µM (inactive) | > 100 µM (inactive) | > 100 µM (inactive) | > 100 µM (inactive) | > 100 µM (inactive) | > 100 µM (inactive) | – | –
9 | CC(=N/NC(=S)N1CCCCC1)/C(C)=N\NC(=S)N1CCCCC1 | 1.97 µM (inactive) | 1.78 µM (inactive) | 1.71 µM (inactive) | 1.76 µM (inactive) | 1.79 µM (inactive) | 1.83 µM (inactive) | 1.54 µM (inactive) | 1.91 µM (inactive) | 2 µM (inactive) | 2.12 µM (inactive) | 2.34 µM (inactive) | 1.59 µM (inactive) | 1.95 µM (inactive) | 1.82 µM (inactive) | 1.77 µM (inactive) | 1.59 µM (inactive) | 1.74 µM (inactive) | 2.42 µM (inactive) | 1.48 µM (inactive) | –
10 | CC1(C)O[C@H]2[C@@H]3N=C(c4ccccc4)O[C@@H]3C=C[C@H]2O1 | > 100 µM (inactive) | > 100 µM (inactive) | > 100 µM (inactive) | > 100 µM (inactive) | > 100 µM (inactive) | > 100 µM (inactive) | > 100 µM (inactive) | > 100 µM (inactive) | > 100 µM (inactive) | > 100 µM (inactive) | > 100 µM (inactive) | – | > 100 µM (inactive) | > 100 µM (inactive) | > 100 µM (inactive) | > 100 µM (inactive) | > 100 µM (inactive) | > 100 µM (inactive) | 83.2 µM (inactive) | > 100 µM (inactive)
11 | Cc1ccc(N2C(=O)C=C(C3=C(O)C(=O)N(c4ccc(C)cc4)C3=O)C2=O)cc1 | – | > 100 µM (inactive) | > 100 µM (inactive) | > 100 µM (inactive) | > 100 µM (inactive) | > 100 µM (inactive) | > 100 µM (inactive) | > 100 µM (inactive) | > 100 µM (inactive) | > 100 µM (inactive) | > 100 µM (inactive) | – | > 100 µM (inactive) | – | > 100 µM (inactive) | > 100 µM (inactive) | > 100 µM (inactive) | > 100 µM (inactive) | 46.5 µM (inactive) | > 100 µM (inactive)
12 | COC(=O)CCC1(C)C2CCC1/C(=N/O)C2 (centres undefined) | > 100 µM (inactive) | > 100 µM (inactive) | > 100 µM (inactive) | > 100 µM (inactive) | > 100 µM (inactive) | > 100 µM (inactive) | > 100 µM (inactive) | > 100 µM (inactive) | > 100 µM (inactive) | > 100 µM (inactive) | > 100 µM (inactive) | > 100 µM (inactive) | > 100 µM (inactive) | > 100 µM (inactive) | > 100 µM (inactive) | > 100 µM (inactive) | > 100 µM (inactive) | > 100 µM (inactive) | – | –
13 | CCCCCC(/C=N/NC(N)=S)C(O)(C(F)(F)F)C(F)(F)F (centres undefined) | > 10 µM (inactive) | > 10 µM (inactive) | > 10 µM (inactive) | > 10 µM (inactive) | > 10 µM (inactive) | > 10 µM (inactive) | > 10 µM (inactive) | > 10 µM (inactive) | > 10 µM (inactive) | > 10 µM (inactive) | > 10 µM (inactive) | > 10 µM (inactive) | > 10 µM (inactive) | > 10 µM (inactive) | > 10 µM (inactive) | – | > 10 µM (inactive) | > 10 µM (inactive) | > 10 µM (inactive) | –
14 | O=c1[nH]c(=O)n(C2CC(O)C(CO)O2)c2nc3ccc4cc5ccccc5cc4c3nc12 (centres undefined) | > 100 µM (inactive) | > 100 µM (inactive) | > 100 µM (inactive) | > 100 µM (inactive) | > 100 µM (inactive) | 53.6 µM (inactive) | > 100 µM (inactive) | > 100 µM (inactive) | > 100 µM (inactive) | > 100 µM (inactive) | > 100 µM (inactive) | > 100 µM (inactive) | > 100 µM (inactive) | 51.6 µM (inactive) | > 100 µM (inactive) | > 100 µM (inactive) | > 100 µM (inactive) | > 100 µM (inactive) | > 100 µM (inactive) | –
15 | Cc1ccc(CC2(C(=O)O)Cc3ccc(C)cc3C2)cc1 (centres undefined) | > 100 µM (inactive) | > 100 µM (inactive) | 68.5 µM (inactive) | > 100 µM (inactive) | > 100 µM (inactive) | > 100 µM (inactive) | > 100 µM (inactive) | > 100 µM (inactive) | 89.1 µM (inactive) | > 100 µM (inactive) | > 100 µM (inactive) | – | 84.3 µM (inactive) | 89.7 µM (inactive) | > 100 µM (inactive) | > 100 µM (inactive) | > 100 µM (inactive) | > 100 µM (inactive) | – | > 100 µM (inactive)
